Laboratory results from article PMC6389993, “Quercetin and its metabolite isorhamnetin promote glucose uptake through different signalling pathways in myotubes” (Scientific Reports, 2019).

Columns and labels:
PKCζ/λ = test: Phosphorylation of PKCζ/λ in L6 myotubes; assay type: cell-based, rat; conditions: 10 nM, data not shown
[1] = cited from earlier work
IRS1 = test: Phosphorylation of IRS1 in L6 myotubes (western blot); assay type: cell-based, rat; conditions: 0.1–10 nM, 15 min
Protocol: (§1) For in vitro cell culture experiments, after serum starvation for 18 h, myotubes were treated with various concentrations of quercetin or isorhamnetin (0.1–10 nM) for 15 min; DMSO (final 0.1%) was used as a vehicle control. As positive controls, 100 nM insulin, 1 mM AICAR, 10 nM leptin, or 100 ng/mL IL-15 were used for insulin, AMPK, JAK2/STAT, or JAK3/STAT signalling pathways, respectively. Cells were treated with insulin or AICAR for 15 min, leptin for 60 min, or IL-15 for 24 h. Whole protein and plasma membrane fractions were prepared from myotubes, as previously described. For in vivo experiment, plasma membrane fraction and tissue lysate of soleus muscle were prepared.
(§2) Translocation of GLUT4 to the plasma membrane, as well as expression and phosphorylation levels of GLUT4-related regulators were estimated by western blot analysis. Briefly, equal amounts of proteins were separated by sodium dodecyl sulfate-polyacrylamide gel electrophoresis (SDS-PAGE). […] Specific immune complexes were developed using ImmunoStar® LD and detected with an ATTO Light-Capture II Western Blotting Detection System. Individual band density was calculated by ImageJ and normalized to the control.

ACC = test: Phosphorylation of ACC in L6 myotubes (western blot); assay type: cell-based, rat; conditions: 0.1 nM or 1 nM, 15 min
Protocol: as §1, §2

IR = test: Phosphorylation of insulin receptor in L6 myotubes (immunoprecipitation, western blot); assay type: cell-based, rat; conditions: 0.1–10 nM, 15 min, all concentrations tested
Protocol: as §1
as §2, with “control. […]” for “control.”

JAK3 = test: Phosphorylation of JAK3 in L6 myotubes (western blot); assay type: cell-based, rat; conditions: physiological concentration range (0.1–10 nM), 15 min
Protocol: as §1, §2

STAT5 = test: Phosphorylation of STAT5 in L6 myotubes (western blot); assay type: cell-based, rat; conditions: 1 nM, 15 min
Protocol: as §1, §2

STAT3 = test: Phosphorylation of STAT3 in L6 myotubes (western blot); assay type: cell-based, rat; conditions: 10 nM, 15 min
Protocol: as §1, §2

STAT1 = test: Phosphorylation of STAT1 in L6 myotubes (western blot); assay type: cell-based, rat; conditions: 0.1–10 nM, 15 min
Protocol: as §1, §2

O=c1c(O)c(-c2ccc(O)c(O)c2)oc2cc(O)cc(O)c12 [quercetin, 3,3′,4′,5,7-pentahydroxy flavone]
phosphorylation of PKCζ/λ (PKCζ/λ): phosphorylated | basal concentrations in the blood ([1]; humans, after consumption of 80–100 mg of quercetin equivalent): 300 to 750 nM | absorption rate ([1]; in humans): 9–20% | phosphorylation of IRS1 (IRS1): dose-dependently promoted | phosphorylation of ACC (ACC): phosphorylation was increased | phosphorylation of insulin receptors (IRs) (IR): failed to activate

COc1cc(-c2oc3cc(O)cc(O)c3c(=O)c2O)ccc1O [isorhamnetin, 3′-O-methyl quercetin]
JAK3 phosphorylation (JAK3): effectively promoted | phosphorylation of STAT5 (STAT5): increased | phosphorylation of STAT3 (STAT3): increased | phosphorylation of insulin receptors (IRs) (IR): failed to activate | phosphorylation of STAT1 (STAT1): but not STAT1
